ChEMBL document CHEMBL1201862, “PubChem BioAssay data set” (2004)
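Exposure lasted 48 hours, with cells grown in 96-well plates and compounds tested at five concentrations. GI50: concentration for 50% inhibition of growth.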 Active and inactive are the calls of the source. Rule as the data show it: active = GI50 up to about 1.1 µM and inactive = higher.

How the values were obtained:
Assay in all cases: NCI-60 cell line screen, 48 h
LOX IMVI = tested on: LOX IMVI
UO-31 = tested on: UO-31
SF-539 = tested on: SF-539
HT-29 = tested on: HT-29
TK-10 = tested on: TK-10
M14 = tested on: M14
SK-OV-3 = tested on: SK-OV-3
SN12C = tested on: SN12C
SF-295 = tested on: SF-295
NCI-H23 = tested on: NCI-H23
SNB-75 = tested on: SNB-75
CAKI-1 = tested on: CAKI-1
NCI-H226 = tested on: NCI-H226
IGROV-1 = tested on: IGROV-1
SK-MEL-2 = tested on: SK-MEL-2
COLO 205 = tested on: COLO 205

Measured: GI50

Cc1cc(NS(=O)(=O)c2ccc(NC(=O)c3ccc(Cl)c4c(Nc5ccc(S(=O)(=O)N=C(N)N)cc5)c5ccccc5nc34)cc2)no1
inactive: LOX IMVI 28.1 µM | UO-31 > 100 µM | SF-539 30.5 µM | HT-29 45.8 µM | TK-10 > 100 µM | M14 > 100 µM | SK-OV-3 > 100 µM | SN12C 32.3 µM | SF-295 > 100 µM | NCI-H23 > 100 µM | SNB-75 29.7 µM

COC(=O)/C(=N\NC(=S)NN)C(C(=O)C(=O)Nc1ccccc1C(N)=O)c1nc2ccccc2nc1O (stereo unspecified)
inactive: CAKI-1 > 100 µM | UO-31 > 100 µM | SF-539 > 100 µM | NCI-H226 > 100 µM | IGROV-1 > 100 µM | TK-10 > 100 µM | M14 > 100 µM | SN12C > 100 µM | SF-295 > 100 µM | SK-MEL-2 > 100 µM | NCI-H23 7.69 µM | COLO 205 > 100 µM

CC(=O)OC1C(CCl)OC(N=[N+]=[N-])C(OC(C)=O)C1OC(C)=O (stereo unspecified)
inactive: CAKI-1 > 100 µM | UO-31 > 100 µM | SF-539 > 100 µM | HT-29 > 100 µM | IGROV-1 > 100 µM | TK-10 > 100 µM | M14 > 100 µM | SK-OV-3 > 100 µM | SN12C > 100 µM | SF-295 > 100 µM | SK-MEL-2 > 100 µM | NCI-H23 > 100 µM | SNB-75 > 100 µM | COLO 205 > 100 µM

COc1ccc2[nH]cc(CCNC(C)=O)c2c1 [MELATONIN]
inactive: CAKI-1 > 100 µM | LOX IMVI 39.8 µM | UO-31 > 100 µM | SF-539 > 100 µM | HT-29 69 µM | IGROV-1 > 100 µM | TK-10 > 100 µM | M14 > 100 µM | SK-OV-3 > 100 µM | SN12C > 100 µM | SF-295 > 100 µM | SK-MEL-2 > 100 µM | NCI-H23 > 100 µM | SNB-75 > 100 µM | COLO 205 29.9 µM

Cc1nc(N)sc1C(=O)/C=C/c1ccc(/C=C/C(=O)c2sc(NC(=O)CCCCCCCCC(=O)Nc3nc(C)c(C(=O)/C=C/c4ccc(/C=C/C(=O)c5sc(N)nc5C)cc4)s3)nc2C)cc1
inactive: CAKI-1 60.4 µM | LOX IMVI > 100 µM | UO-31 > 100 µM | SF-539 > 100 µM | HT-29 > 100 µM | IGROV-1 > 100 µM | TK-10 > 100 µM | M14 > 100 µM | SK-OV-3 > 100 µM | SN12C > 100 µM | SF-295 > 100 µM | SK-MEL-2 > 100 µM | NCI-H23 > 100 µM | COLO 205 > 100 µM
